Assay [1] has as its system P. falciparum (3D7, ring stage) cultures. The assay is described as follows: P. falciparum 3D7 72-h growth inhibition, lactate dehydrogenase (PfLDH) assay. Format: cell-based. To be noted: Plasmodium falciparum, 72 h exposure. The method, then: Routine analyses of antimalarial activity against P. falciparum 3D7 was tested by TCGLS (Kolkata, India) using the lactate dehydrogenase (PfLDH) growth inhibition assay as previously described. […] P. falciparum strain (3D7) was obtained from BEI Resources.

In assay [2] the test system is Cam3.II^rev parasite cultures, trophozoite (25–30 h.p.i.) stage. The assay is described as follows: 6-h pulse exposure of synchronized trophozoites, SYBR Green I growth inhibition in next cycle. The note with it: Plasmodium falciparum, read-out: P. falciparum 6-h Trophozoite Stage IC50 (Cam3.II). It is filed as cell-based. The method, then:
Assessment of the killing activity of ML901 in pulsed exposure assays was performed using a modification of a previously described procedure. Briefly, cultures of Cam3.II^rev trophozoites (1.5% final hematocrit; 1.4% final parasitemia) were pre-synchronized to a 5-h window at trophozoite or schizont stage. Compounds were serially diluted in complete medium in v-bottomed microplates. Parasites were exposed to ML901 for 3 h, 6 h, 9 h or 24 h before washing 5 times with 200 μl of complete medium, then returned to culture conditions. For the no wash samples, ML901 was left in the culture until the assay point. Growth inhibition was assessed in the second cycle by labelling with the DNA-binding dye, SYBR Green I. Quantification of total DNA level reflects cytostatic effects as well as cytocidal effects. Old media (140 μl) was firstly replaced with fresh media, followed by the addition of lysis buffer (20 mM Tris, pH 7.5, 5 mM EDTA, 0.008% w/v saponin, 0.08% v/v Triton X-100) containing SYBR Green I. Plates were incubated at room temperature for 2 h and fluorescence readings were taken using a microplate reader (BMG LABTECH).

Another assay deals with HepG2 cells. The assay is described as follows: HepG2 72-h viability, CellTiter-Glo. It is filed as cell-based. To be noted: Homo sapiens, 72 h exposure. The method, then: The HepG2 (Human hepatocyte carcinoma) cell line was procured from ATCC (American Type Culture Collection, Manassas, USA; HB-8065) and viability assessed using CellTiter-Glo luminescent cell viability assay reagents (Promega). For the assay, 2,000 cells/well were plated in 384-well plates 24 h prior to the experiment and incubated at 37°C in a CO2 incubator. The medium was removed; and cells were treated with fresh medium containing either vehicle (0.5% DMSO) or serially diluted compounds or doxorubicin (1.3 nM to 25 μM) in a final volume of 50 μL/well and further incubated for 72 h at 37°C in a CO2 incubator. […] Following incubation, 25 μL of medium was discarded and 25 μl of CellTiter-Glo reagent was added to each well and the plate was kept on a plate shaker for 15 min at 25°C with shaking at 300 rpm. Luminescence signals were measured in a PHERAstar FSX reader (BMG LABTECH).
A general note: Cellular ATP, detected with luciferase, serves as a proxy for viable cell number.

In assay [3] the target is T1, UAE (ubiquitin activating enzyme) (Homo sapiens, UniProt P22314).
T1 sequence (P22314 1-1058): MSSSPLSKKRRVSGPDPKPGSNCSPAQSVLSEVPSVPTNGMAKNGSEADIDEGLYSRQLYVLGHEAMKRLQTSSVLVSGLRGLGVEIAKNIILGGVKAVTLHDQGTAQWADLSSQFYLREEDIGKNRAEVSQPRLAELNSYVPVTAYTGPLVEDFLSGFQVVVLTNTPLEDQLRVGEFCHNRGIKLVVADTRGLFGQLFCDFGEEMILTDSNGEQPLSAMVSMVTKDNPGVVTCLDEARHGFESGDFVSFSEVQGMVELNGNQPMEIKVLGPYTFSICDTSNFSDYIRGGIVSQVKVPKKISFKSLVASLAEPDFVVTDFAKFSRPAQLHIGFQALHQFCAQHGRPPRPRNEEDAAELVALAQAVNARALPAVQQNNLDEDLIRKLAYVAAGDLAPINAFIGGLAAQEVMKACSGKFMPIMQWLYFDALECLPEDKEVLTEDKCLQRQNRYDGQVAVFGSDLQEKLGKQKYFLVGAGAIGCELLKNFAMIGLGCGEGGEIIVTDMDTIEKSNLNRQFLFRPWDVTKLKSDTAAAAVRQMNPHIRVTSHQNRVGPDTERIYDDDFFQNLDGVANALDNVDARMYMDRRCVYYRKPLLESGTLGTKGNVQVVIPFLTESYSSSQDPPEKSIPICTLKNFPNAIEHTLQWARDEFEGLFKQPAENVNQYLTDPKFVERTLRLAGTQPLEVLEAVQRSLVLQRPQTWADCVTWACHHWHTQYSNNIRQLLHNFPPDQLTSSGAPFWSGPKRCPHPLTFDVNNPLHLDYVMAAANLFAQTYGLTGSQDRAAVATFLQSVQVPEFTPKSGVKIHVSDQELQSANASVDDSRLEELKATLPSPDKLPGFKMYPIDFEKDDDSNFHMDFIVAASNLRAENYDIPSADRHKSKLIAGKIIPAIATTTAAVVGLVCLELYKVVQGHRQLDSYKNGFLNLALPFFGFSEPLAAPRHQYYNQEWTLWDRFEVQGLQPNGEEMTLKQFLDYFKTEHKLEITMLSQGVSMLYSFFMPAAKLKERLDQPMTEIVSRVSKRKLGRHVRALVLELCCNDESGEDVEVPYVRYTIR
Briefly: UAE E1-E2 transthiolation HTRF assay. Format: biochemical. An excerpt:
An Homogeneous Time-Resolved Fluorescence (HTRF) enzyme assay was employed to evaluate compound activity against ATG7 as previously described. In this assay, a Flag-tagged ATG8 homolog (GABA type A receptor-associated protein; GABARAP) is activated by ATG7 and then transthiolated to a GST-tagged E2 (ATG3). The product of the enzyme reaction, Flag-GABARAP-ATG3-GST, is quantified by measuring FRET between Europium-Cryptate labelled monoclonal anti-Flag M2 (FLAG M2-Eu cryptate; Revvity, Cat# 61FG2KLB) and […] (Anti-GST IgG conjugated to SureLight-Allophycocyanin) (Revvity, Cat# AD0059G)). The activation and transthiolation of ubiquitin by UAE, activation and transthiolation of NEDD8 by NAE and activation and transthiolation of SUMO by SAE were all assayed in a similar fashion with appropriately tagged ubiquitin-like proteins and E2 conjugating enzymes as described.
(Time-resolved FRET reads energy transfer from a long-lived donor to a nearby acceptor.)

The target of the next assay is PfTyrRS (Plasmodium falciparum, UniProt Q8IAR7). Briefly: ATP consumption by PfTyrRS (Kinase Glo). It is filed as biochemical. The note with it: PfTyrRS 25 nM, ATP 10 μM, tyrosine 200 μM, cognate tRNA^Tyr 4.8 μM, 37°C 1 h; read-out: Inhibition of PfTyrRS (Kinase Glo) IC50. The method, then: Consumption of ATP was measured using a luciferase-based assay as per the manufacturer’s instructions (Kinase-Glo Luminescent Kinase Assay, Promega).
Background: Kinase-Glo measures the ATP left after a reaction by luminescence.

Where “and” joins values, the source holds several entries; their conditions need not be identical. Identical values can stand only once. Entries after “also recorded” stand apart in the source; their conditions may differ. Bounds are passed on as bounds.

Sequence of PfTyrRS (Q8IAR7 entry or part of it): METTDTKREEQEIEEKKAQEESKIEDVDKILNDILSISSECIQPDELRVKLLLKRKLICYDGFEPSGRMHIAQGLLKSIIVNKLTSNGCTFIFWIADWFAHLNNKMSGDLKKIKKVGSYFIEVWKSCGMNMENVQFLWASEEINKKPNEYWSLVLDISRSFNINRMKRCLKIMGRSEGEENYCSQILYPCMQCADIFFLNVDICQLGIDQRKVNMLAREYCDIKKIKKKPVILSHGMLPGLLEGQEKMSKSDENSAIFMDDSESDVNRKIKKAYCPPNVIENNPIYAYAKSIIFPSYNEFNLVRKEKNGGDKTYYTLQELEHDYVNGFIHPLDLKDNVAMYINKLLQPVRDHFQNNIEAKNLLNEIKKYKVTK

Usually IC50 stands for the concentration at which inhibition is half-maximal. Take `Nc1ncnc2c1c(C(F)(F)F)nn2[C@@H]1O[C@H](COS(N)(=O)=O)[C@@H](O)[C@H]1O` [ML107]: the IC50 in assay [1] was found to be 0.0042 ± 0.0005 µM; in assay [2], 0.15 ± 0.033 µM; with HepG2 cells it was 2.52 µM; in assay [3] it was 22.9 ± 0.7 µM; at PfTyrRS it was 24 ± 5 µM.
As to `Nc1ncnc2c1c(OC(F)F)nn2[C@@H]1O[C@H](COS(N)(=O)=O)[C@@H](O)[C@H]1O` [ML901], the IC50 was 0.0028 ± 0.0002 µM in assay [1]; 0.135 ± 0.014 µM in assay [2]; 4.65 µM with HepG2 cells; 5.39 ± 0.16 µM in assay [3]; 13.4 µM and 13 µM at PfTyrRS.
On to `CC(C)c1nn([C@@H]2O[C@H](COS(N)(=O)=O)[C@@H](O)[C@H]2O)c2ncnc(N)c12` [ML471, ((2R,3S,4R,5R)-5-(4-amino-3-isopropyl-1H-pyrazolo[3,4-d]pyrimidin-1-yl)-3,4-dihydroxytetrahydrofuran-2-yl)methyl sulfamate], for which the IC50 in assay [1] is 0.0015 ± 0.0002 µM; in assay [2], 0.0291 ± 0.003 µM; in the assay on HepG2 cells it was greater than 50 µM; in assay [3], 85.7 ± 6.5 µM; on PfTyrRS, 1.4 ± 0.2 µM. For the same compound, the “activity against UAE (in words)” value in assay [3] (human UAE in vitro) is on record as “no inhibitory activity; also recorded: no or very little activity”.
On to `CCc1nn([C@@H]2O[C@H](COS(N)(=O)=O)[C@@H](O)[C@H]2O)c2ncnc(N)c12` [ML681], for which the IC50 in assay [1] is 0.0034 ± 0.0001 µM; in the assay on HepG2 cells it was 7.53 µM; in assay [3], 8.7 ± 0.6 µM; on PfTyrRS it was 23 ± 8 µM.
With `CCOc1nn([C@@H]2O[C@H](COS(N)(=O)=O)[C@@H](O)[C@H]2O)c2ncnc(N)c12` [ML676], the figures for the IC50 (in assay [1]; with HepG2 cells; in assay [3]) were 0.0028 ± 0.0002 µM, 22.4 µM and 73.4 ± 3.5 µM, respectively.
On to `CC(C)Oc1nn([C@@H]2O[C@H](COS(N)(=O)=O)[C@@H](O)[C@H]2O)c2ncnc(N)c12` [ML723], for which the IC50 was 0.0025 ± 0.0006 µM in assay [1]; 0.22 ± 0.031 µM in assay [2]; greater than 50 µM with HepG2 cells; greater than 100 µM in assay [3]; 14 ± 5 µM on PfTyrRS.
On to `Nc1ncnc2c1c(Oc1ccccc1)nn2[C@@H]1O[C@H](COS(N)(=O)=O)[C@@H](O)[C@H]1O` [ML470], for which the IC50 in assay [1] is 0.0448 ± 0.0082 µM; with HepG2 cells, greater than 50 µM; in assay [3], greater than 100 µM; at PfTyrRS it was 41 ± 23 µM.

(Values after PMC11671014 (PLOS Pathogens, 2024).)
